We go through six compounds from patent US20260027108A1, “PHARMACEUTICAL COMPOSITION OF HETEROARYL DERIVATIVE AND MEDICAL USE THEREOF” (Haisco Pharmaceutical Group Co., Ltd., priority 2022, published 2026).

As a reminder, the IC50 is the concentration at which inhibition is half-maximal.

Each structure is given as a SMILES string. Like-named read-outs stand apart in the source and are kept apart here.

For series [1], the system named is MDA-MB-436 subcutaneous transplanted tumor. The series is described as follows: Mouse MDA-MB-436 subcutaneous in vivo transplanted tumor model. To be noted: Day 0-Day 10: 1 mg/kg, Day 11-Day 28: 0.1 mg/kg, once a day.
Description: Human breast cancer MDA-MB-436 cells were placed in Leibovitz's L-15 medium (supplemented with 10 μg/mL insulin, 16 μg/mL glutathione, 10% fetal bovine serum and 1% penicillin-streptomycin solution) and cultured at 37° C. Conventional digestion treatment with trypsin was performed twice a week for passage. When the cell saturation was 80%-90%, and the number reached the requirement, the cells were harvested, counted, and inoculated. BALB/c nude mice (from Beijing Vital River Laboratory Animal Technology Co., Ltd.) were subcutaneously inoculated with 0.2 mL (10×10^6) of MDA-MB-436 cells (plus matrigel, with the volume ratio of 1:1) on the right back. When the average tumor volume reached about 180 mms, grouping and administration were performed (marked as Day 0). […] The administration frequency was once a day, the administration cycle was 29 days, and the drug withdrawal observation period was set to 14 days. After grouping, the tumor diameter was measured twice a week with a vernier caliper. The formula for calculating the tumor volume was: V=0.5×a×b^2, where a and b represented the long and short diameters of the tumor, respectively.
The target of a further series is PARP1 enzyme (Homo sapiens (Human), UniProt P09874). Nature of the series: PARP1 enzyme activity test (chemiluminescence kit, BPS Bioscience). It is filed as biochemical. To be noted: read-out: PARP-1 enzyme activity IC50.
PARP1 enzyme, sequence (P09874 whole entry): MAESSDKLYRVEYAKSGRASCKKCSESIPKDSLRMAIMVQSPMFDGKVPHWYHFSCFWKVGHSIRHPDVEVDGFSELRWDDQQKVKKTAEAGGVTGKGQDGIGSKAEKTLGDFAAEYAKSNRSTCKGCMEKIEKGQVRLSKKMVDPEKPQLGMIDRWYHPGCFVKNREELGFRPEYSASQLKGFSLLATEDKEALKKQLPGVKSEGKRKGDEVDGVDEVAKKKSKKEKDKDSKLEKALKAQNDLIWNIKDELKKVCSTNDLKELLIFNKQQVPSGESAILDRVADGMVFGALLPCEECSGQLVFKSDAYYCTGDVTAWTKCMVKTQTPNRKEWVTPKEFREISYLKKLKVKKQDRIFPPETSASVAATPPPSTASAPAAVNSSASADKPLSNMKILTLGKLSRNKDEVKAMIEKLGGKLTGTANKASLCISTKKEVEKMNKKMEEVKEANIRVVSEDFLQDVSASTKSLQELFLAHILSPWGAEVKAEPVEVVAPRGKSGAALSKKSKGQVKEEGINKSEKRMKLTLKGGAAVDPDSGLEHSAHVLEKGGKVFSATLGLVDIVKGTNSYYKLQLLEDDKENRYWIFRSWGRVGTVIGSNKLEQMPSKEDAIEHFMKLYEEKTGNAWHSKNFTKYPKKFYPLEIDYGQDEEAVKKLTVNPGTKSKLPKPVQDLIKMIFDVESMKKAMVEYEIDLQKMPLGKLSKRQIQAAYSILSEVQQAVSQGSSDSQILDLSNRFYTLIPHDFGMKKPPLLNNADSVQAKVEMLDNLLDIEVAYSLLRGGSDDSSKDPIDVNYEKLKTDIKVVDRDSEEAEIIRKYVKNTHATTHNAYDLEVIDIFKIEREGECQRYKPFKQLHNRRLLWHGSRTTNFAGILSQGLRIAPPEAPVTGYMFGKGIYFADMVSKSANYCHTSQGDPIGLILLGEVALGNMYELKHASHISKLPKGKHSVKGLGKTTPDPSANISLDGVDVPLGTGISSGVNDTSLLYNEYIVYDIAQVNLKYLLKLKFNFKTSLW
Another series relates to MDA-MB-436 cells. The series is described as follows: MDA-MB-436 cell activity test (CellTiter-Glo, 7 days). It is filed as cell-based, Human. To be noted: for IC50: 7 days incubation, read-out: MDA-MB-436 cell inhibitory activity IC50. On the procedure:
On day 1, the cells in the exponential growth phase were collected, and the cell suspension was adjusted to 4000 cells/135 μL with the culture medium. 135 μL of the cell suspension was added to each well of a 96-well cell culture plate and incubated overnight. On day 2, compounds at different concentrations were added, and the plate was placed in the incubator and incubated for 7 days. After the incubation was completed, according to operation instructions for a CellTiter-Glo kit (Promega, G7573), 75 μL of CTG solution, which was already pre-melted and equilibrated to room temperature, was added to each well, and the mixture was uniformly mixed for 2 min using a microplate shaker. The plate was placed at room temperature for 10 min, and then […] were measured using an Envision2104 plate reader (PerkinElmer). […] The IC50 value was calculated using GraphPad Prism software.
In general terms: ATP-based viability assays read luminescence as a measure of living cells.

Description for PARP1 enzyme: PARP1 chemical fluorescence detection kit was purchased from BPS Bioscience. The histone solution in the kit was diluted 5× with 1×PBS, and 25 μL of the diluted histone solution was added to a microwell plate and incubated overnight at 4° C. After the incubation, the plate was washed three times with PBST (0.05% Tween-20). 100 μL of the blocking solution was added to the microwell plate and incubated at 25° C. for 90 minutes. After the incubation was completed, the plate was washed three times with PBST. 2.5 μL of compounds at different concentrations diluted in test buffer and 12.5 μL of substrate mixed solution (1.25 μL 10×PARP test buffer; 1.25 μL 10×PARP test mixed solution; 2.5 μL Activated DNA, 7.5 μL double-distilled water) were added to the microwell plate. The PARP1 enzyme was diluted to 2 ng/μL, 10 μL of the diluent was added to the microwell plate, and the reaction system was incubated at 25° C. for 60 minutes.
After the incubation was completed, the plate was washed three times with PBST. Streptavidin-HRP was diluted 50× with a blocking solution, and 25 μL of the diluent was added to the microwell plate and incubated at 25° C. for 30 minutes. After the incubation, the plate was washed three times with PBST. ELISA ECL substrate A and substrate B were mixed at a ratio of 1:1 (v/v), 50 μL of the mixture was added to the microwell plate, and the chemiluminescence value was read.
Curve fitting was performed by four parameters (log(inhibitor) vs. response—Variable slope) using GraphPad Prism software, and the IC50 value was calculated.

In the case of `CCc1cc2ncc(CN3CCN(c4ccc(C(=O)NC5CC5)nc4)CC3)cc2[nH]c1=O` [Compound 4], the “body weight of the animals” value in series [1] is “no significant decrease”. For `CCC1=CC2N=CC(CN3CCN(c4ccc(C(=O)C[C@@H]5C[C@@H]5F)nc4)CC3)=CC2CC1=O` (stereo partly drawn) [Compound 11], the IC50 is 0.54 nM on PARP1 enzyme and 6 nM in the series on MDA-MB-436 cells. In the series with MDA-MB-436 cells (10 μM, MDA-MB-436 cells), the “Max inh. % 10 μM” value is given as 85.2%.

For `CCc1cc2ncc(CN3CCN(c4ccc(NC(=O)[C@H]5C[C@H]5F)nc4)CC3)cc2[nH]c1=O` [Compound 34], at PARP1 enzyme, the IC50 worked out at 0.66 nM. The same measure, in the same setting: as for `CCc1cc2ncc(CN3CCN(c4ccc(NC(=O)[C@@H]5C[C@H]5F)nc4)CC3)cc2[nH]c1=O` [Compound 35], the figure is 0.97 nM. For `CCc1cc2ncc(CN3CCN(c4ccc(C(=O)NC5C[C@H]5F)nc4)CC3)cc2[nH]c1=O` (stereo partly drawn) [Compound 41], the concentration for half-maximal inhibition (IC50) in the series on MDA-MB-436 cells (Homo sapiens, MDA-MB-436, 168 h) was 2.3 nM. For the same compound, the inhibition at 10 µM in the series on MDA-MB-436 cells (Homo sapiens, 10 μM, MDA-MB-436 cells, read-out: Max inh. % 10 μM) was 92.1%. Turning to `COc1cc2ncc(CN3CCN(c4ccc(C(=O)NC5CN(c6ccccc6)C5)nc4)CC3)cc2[nH]c1=O` [Compound 46], on PARP1 enzyme, the IC50 amounted to 0.56 nM.
